# Patent US7541020B2, “Aminoalkyl glucosaminide phosphate compounds and their use as adjuvants and immunoeffectors” (priority 1997, dated 2009)
# Like-named read-outs stand apart in the source and are kept apart here.
# Experiments:
# influenza A/HK/68 [1] = assay type: in vivo, BALB/c mice
# E.G7 (OVA) cells = conditions: s.c. 25 μg OVA in AGP preparation, spleen cells 21 days later
# influenza A/HK/68 [2] = tested on: influenza A/HK/68; design: species or system ICR mice; conditions: mouse, in vivo
# influenza A/HK/68 [3] = assay type: in vivo, ICR mice
# tetanus toxoid = conditions: mouse, in vivo, sc
# IL-1β = assay: Cytokine induction in human whole blood ex vivo culture: IL-1β (ELISA); assay type: cell-based; conditions: 4 hr
# Method: (§1) AGP compounds were solubilized in 10% EtOH-water and diluted to various concentrations. Fifty μl of each dilution were added to 450 μl of whole human blood. Controls were treated with culture media (RPMI). The reaction mixture was incubated at 37° C. for 4 hr with constant mixing on a rotator. Sterile PBS (1.5 ml) was added to the reaction mixture, the cells were centrifuged and the supernatents removed for cytokine testing. The concentration of TNF-α and IL-1β in each supernatent was determined using immunoassay ELISA kits from R&D Systems.
# TNF-α = assay: Cytokine induction in human whole blood ex vivo culture: TNF-α (ELISA); assay type: cell-based; conditions: 4 hr
# Method: as §1
# [4] = 25 μg AGP + 1 HAU FI-Flu in 2% Squalene, SQ once, bled 14 days after vaccination
# [5] = 25 μg AGP + 1 HAU FI-Flu in 0.2% TEoA, once, bled day 14, Table 11
compound,measurement,setting,value
3-Hydroxy-(S)-2-[(R)-3-decanoyloxytetradecanoylamino]propyl 2-Deoxy-6-O-phosphono-2-[(R)-3-decanoyloxytetradecanoylamino]-3-O-[(R)-3-decanoyloxytetradecanoyl]-β-D-glucopyranoside Triethylammonium Salt [B6],Anti-influenza Titer^−1 IgG1,"influenza A/HK/68 [1]; mouse, in vivo",800
same,Anti-influenza Titer^−1 IgG2a,"influenza A/HK/68 [1]; mouse, in vivo",400
same,Anti-influenza Titer^−1 IgG2b,"influenza A/HK/68 [1]; mouse, in vivo",1600
same,Anti-influenza Titer^−1 Total IgG,"influenza A/HK/68 [1]; mouse, in vivo",800
same,Percent Survival,"influenza A/HK/68 [1]; mouse, in vivo",75%
same,% Cytotoxicity,E.G7 (OVA) cells; E:T 12.5:1,37%
same,% Cytotoxicity,E.G7 (OVA) cells; E:T 25:1,41%
same,% Cytotoxicity,E.G7 (OVA) cells; E:T 50:1,54%
same,IgG Titer-1 post 1°,influenza A/HK/68 [2],1600
same,IgG Titer-1 post 2°,influenza A/HK/68 [2],"102,400"
same,Percent Survival post 1°,influenza A/HK/68 [2],80%
same,Percent Survival post 2°,influenza A/HK/68 [2],70%
3-Hydroxy-(S)-2-[(R)-3-heptanoyloxytetradecanoylamino]propyl 2-Deoxy-4-O-phosphono-2-[(R)-3-heptanoyloxytetradecanoylamino]-3-O-[(R)-3-heptanoyloxytetradecanoyl]-β-D-glucopyranoside Triethylammonium Salt [B8],% Cytotoxicity,E.G7 (OVA) cells; E:T 12.5:1,15%
same,% Cytotoxicity,E.G7 (OVA) cells; E:T 25:1,20%
same,% Cytotoxicity,E.G7 (OVA) cells; E:T 50:1,36%
same,Percent Survival,"influenza A/HK/68 [3]; mouse, in vivo",80%
same,Titer−1 IgG1,"influenza A/HK/68 [3]; mouse, in vivo",3200
same,Titer−1 IgG2a,"influenza A/HK/68 [3]; mouse, in vivo",400
same,Titer−1 IgG2b,"influenza A/HK/68 [3]; mouse, in vivo",1600
same,Titer−1 Total IgG,"influenza A/HK/68 [3]; mouse, in vivo",6400
CCCCCCCCCCC[C@H](CC(=O)N[C@H]1[C@H](OCCCN(CC(=O)O)C(=O)C[C@@H](CCCCCCCCCCC)OC(=O)CCCCCCCCC)O[C@H](CO)[C@@H](OP(=O)(O)O)[C@@H]1OC(=O)C[C@@H](CCCCCCCCCCC)OC(=O)CCCCCCCCC)OC(=O)CCCCCCCCC.CCN(CC)CC [B28],Anti-tetanus toxoid IgG1 T/C,tetanus toxoid,92.5
same,Anti-tetanus toxoid IgG1 Titer,tetanus toxoid,"137,600"
same,Anti-tetanus toxoid IgG2a T/C,tetanus toxoid,664.7
same,Anti-tetanus toxoid IgG2a Titer,tetanus toxoid,"9,970"
same,Anti-tetanus toxoid IgG2b T/C,tetanus toxoid,519.2
same,Anti-tetanus toxoid IgG2b Titer,tetanus toxoid,"27,520"
same,Anti-tetanus toxoid IgM T/C,tetanus toxoid,3.7
same,Anti-tetanus toxoid IgM Titer,tetanus toxoid,"2,080"
same,Anti-tetanus toxoid Total Ig T/C,tetanus toxoid,228.6
same,Anti-tetanus toxoid Total Ig Titer,tetanus toxoid,"54,500"
same,IL-1β,"IL-1β; Dosage 1000 ng/ml, Table 19",8 pg/mL
same,IL-1β,"IL-1β; Dosage 5000 ng/ml, Table 19",13 pg/mL
same,IL-1β,"IL-1β; Dosage 10,000 ng/ml, Table 19",13 pg/mL
same,Percent Survival,"influenza A/HK/68 [1]; 25 μg AGP + 1 HAU FI-Flu in 2% Squalene, SQ once, […], mortality 21 days",50%
same,Anti-influenza Titer^−1 IgG1,influenza A/HK/68 [1]; [4],400
same,Anti-influenza Titer^−1 IgG2a,influenza A/HK/68 [1]; [4],400
same,Anti-influenza Titer^−1 IgG2b,influenza A/HK/68 [1]; [4],100
same,Anti-influenza Titer^−1 Total IgG,influenza A/HK/68 [1]; [4],800
same,% Cytotoxicity,E.G7 (OVA) cells; E:T 12.5:1,9%
same,% Cytotoxicity,E.G7 (OVA) cells; E:T 25:1,15%
same,% Cytotoxicity,E.G7 (OVA) cells; E:T 50:1,28%
same,TNF-α,"TNF-α; Dosage 1000 ng/ml, Table 19",139 pg/mL
same,TNF-α,"TNF-α; Dosage 5000 ng/ml, Table 19",197 pg/mL
same,TNF-α,"TNF-α; Dosage 10,000 ng/ml, Table 19",198 pg/mL
N-[(R)-3-Decanoyloxytetradecanoyl]-O-[2-deoxy-4-O-phosphono-2-[(R)-3-decanoyloxytetradecanoylamino]-3-O-[(R)-3-hexanoyloxytetradecanoyl]-α-D-glucopyranosyl]-L-serine Triethylammonium Salt [B35],% Cytotoxicity,E.G7 (OVA) cells; E:T 12.5:1,2%
same,% Cytotoxicity,E.G7 (OVA) cells; E:T 25:1,5%
same,% Cytotoxicity,E.G7 (OVA) cells; E:T 50:1,9%
N-[(R)-3-Decanoyloxytetradecanoyl]-O-[2-deoxy-4-O-phosphono-2-[(R)-3-hexanoyloxytetradecanoylamino]-3-O-[(R)-3-decanoyloxytetradecanoyl]-α-D-glucopyranosyl]-L-serine Triethylammonium Salt [B36],% Cytotoxicity,E.G7 (OVA) cells; E:T 12.5:1,4%
same,% Cytotoxicity,E.G7 (OVA) cells; E:T 25:1,7%
same,% Cytotoxicity,E.G7 (OVA) cells; E:T 50:1,13%
N-[(R)-3-Decanoyloxytetradecanoyl]-O-[2-deoxy-4-O-phosphono-2-[(R)-3-hexanoyloxytetradecanoylamino]-3-O-[(R)-3-hexanoyloxytetradecanoyl]-α-D-glucopyranosyl]-L-serine Triethylammonium Salt [B40],% Cytotoxicity,E.G7 (OVA) cells; E:T 12.5:1,8%
same,% Cytotoxicity,E.G7 (OVA) cells; E:T 25:1,12%
same,% Cytotoxicity,E.G7 (OVA) cells; E:T 50:1,20%
N-[(R)-3-Heptanoyloxytetradecanoyl]-O-[2-deoxy-4-O-phosphono-2-[(R)-3-heptanoyloxytetradecanoylamino]-3-O-[(R)-3-heptanoyloxytetradecanoyl]-β-D-glucopyranosyl]-L-serine Triethylammonium Salt [B18],% Cytotoxicity,E.G7 (OVA) cells; E:T 12.5:1,15%
same,% Cytotoxicity,E.G7 (OVA) cells; E:T 25:1,20%
same,% Cytotoxicity,E.G7 (OVA) cells; E:T 50:1,36%
same,Titer^−1 IgG1,influenza A/HK/68 [3]; [5],800
same,Titer^−1 IgG2a,influenza A/HK/68 [3]; [5],800
same,Titer^−1 IgG2b,influenza A/HK/68 [3]; [5],400
same,Titer^−1 Total IgG,influenza A/HK/68 [3]; [5],800
same,Percent Survival,"influenza A/HK/68 [3]; […], mortality 21 days, Table 11",20%
N-[(R)-3-Hexanoyloxytetradecanoyl]-O-[2-deoxy-4-O-phosphono-2-[(R)-3-decanoyloxytetradecanoylamino]-3-O-[(R)-3-decanoyloxytetradecanoyl]-α-D-glucopyranosyl]-L-serine Triethylammonium Salt [B37],% Cytotoxicity,E.G7 (OVA) cells; E:T 12.5:1,6%
same,% Cytotoxicity,E.G7 (OVA) cells; E:T 25:1,8%
same,% Cytotoxicity,E.G7 (OVA) cells; E:T 50:1,12%
N-[(R)-3-Hexanoyloxytetradecanoyl]-O-[2-deoxy-4-O-phosphono-2-[(R)-3-decanoyloxytetradecanoylamino]-3-O-[(R)-3-hexanoyloxytetradecanoyl]-α-D-glucopyranosyl]-L-serine Triethylammonium Salt [B39],% Cytotoxicity,E.G7 (OVA) cells; E:T 12.5:1,13%
same,% Cytotoxicity,E.G7 (OVA) cells; E:T 25:1,21%
same,% Cytotoxicity,E.G7 (OVA) cells; E:T 50:1,33%
N-[(R)-3-Hexanoyloxytetradecanoyl]-O-[2-deoxy-4-O-phosphono-2-[(R)-3-hexanoyloxytetradecanoylamino]-3-O-[(R)-3-decanoyloxytetradecanoyl]-α-D-glucopyranosyl]-L-serine Triethylammonium Salt [B38],% Cytotoxicity,E.G7 (OVA) cells; E:T 12.5:1,16%
same,% Cytotoxicity,E.G7 (OVA) cells; E:T 25:1,25%
same,% Cytotoxicity,E.G7 (OVA) cells; E:T 50:1,38%
N-[(R)-3-Hydroxytetradecanoyl]-O-[2-deoxy-4-O-phosphono-2-[(R)-3-dodecanoyloxytetradecanoylamino]-3-O-[(R)-3-tetradecanoyloxytetradecanoyl]-α-D-glucopyranosyl]-L-serine Triethylammonium Salt [B43],% Cytotoxicity,E.G7 (OVA) cells; E:T 12.5:1,6%
same,% Cytotoxicity,E.G7 (OVA) cells; E:T 25:1,12%
same,% Cytotoxicity,E.G7 (OVA) cells; E:T 50:1,19%
N-[(R)-3-Nonanoyloxytetradecanoyl]-O-[2-deoxy-4-O-phosphono-2-[(R)-3-nonanoyloxytetradecanoylamino]-3-O-[(R)-3-nonanoyloxytetradecanoyl]-β-D-glucopyranosyl]-L-serine Triethylammonium Salt [B16],Anti-tetanus toxoid IgG2a T/C,tetanus toxoid,66.8
same,Anti-tetanus toxoid IgG2a titer,tetanus toxoid,1135
same,Anti-tetanus toxoid IgG2b T/C,tetanus toxoid,104
same,Anti-tetanus toxoid IgG2b titer,tetanus toxoid,6880
same,Anti-tetanus toxoid IgM T/C,tetanus toxoid,1.6
same,Anti-tetanus toxoid IgM titer,tetanus toxoid,2560
same,IL-1β,"IL-1β; Dosage 500 ng/ml, Table 17",17.1 pg/mL
same,IL-1β,"IL-1β; Dosage 1000 ng/ml, Table 15",39 pg/mL
same,IL-1β,"IL-1β; Dosage 1000 ng/ml, Table 17",19.5 pg/mL
same,IL-1β,"IL-1β; Dosage 5000 ng/ml, Table 15",53 pg/mL
same,IL-1β,"IL-1β; Dosage 5000 ng/ml, Table 17",34.0 pg/mL
same,IL-1β,"IL-1β; Dosage 10,000 ng/ml, Table 15",55 pg/mL
same,IL-1β,"IL-1β; Dosage 10,000 ng/ml, Table 17",41.0 pg/mL
same,% Cytotoxicity,E.G7 (OVA) cells; E:T 12.5:1,20%
same,% Cytotoxicity,E.G7 (OVA) cells; E:T 25:1,29%
same,% Cytotoxicity,E.G7 (OVA) cells; E:T 50:1,42%
same,TNF-α,"TNF-α; Dosage 500 ng/ml, Table 17",55 pg/mL
same,TNF-α,"TNF-α; Dosage 1000 ng/ml, Table 15",155 pg/mL
same,TNF-α,"TNF-α; Dosage 1000 ng/ml, Table 17",72 pg/mL
same,TNF-α,"TNF-α; Dosage 5000 ng/ml, Table 15",277 pg/mL
same,TNF-α,"TNF-α; Dosage 5000 ng/ml, Table 17",114 pg/mL
same,TNF-α,"TNF-α; Dosage 10,000 ng/ml, Table 15",291 pg/mL
same,TNF-α,"TNF-α; Dosage 10,000 ng/ml, Table 17",121 pg/mL
same,Percent Survival,"influenza A/HK/68 [3]; mouse, in vivo",40%
same,Titer^−1 IgG1,"influenza A/HK/68 [3]; mouse, in vivo",1600
same,Titer^−1 IgG2a,"influenza A/HK/68 [3]; mouse, in vivo",100
same,Titer^−1 IgG2b,"influenza A/HK/68 [3]; mouse, in vivo",800
same,Titer^−1 Total IgG,"influenza A/HK/68 [3]; mouse, in vivo",800
N-[(R)-3-Undecanoyloxytetradecanoyl]-O-[2-deoxy-4-O-phosphono-2-[(R)-3-undecanoyloxytetradecanoylamino]-3-O-[(R)-3-undecanoyloxytetradecanoyl]-β-D-glucopyranosyl]-L-serine Triethylammonium Salt [B13],Anti-tetanus toxoid IgG2a T/C,tetanus toxoid,220
same,Anti-tetanus toxoid IgG2a titer,tetanus toxoid,3740
same,Anti-tetanus toxoid IgG2b T/C,tetanus toxoid,>208
same,Anti-tetanus toxoid IgG2b titer,tetanus toxoid,">13,760"
same,Anti-tetanus toxoid IgM T/C,tetanus toxoid,3.9
same,Anti-tetanus toxoid IgM titer,tetanus toxoid,6080
same,IL-1β,"IL-1β; Dosage 100 ng/ml, Table 17",261 pg/mL
same,IL-1β,"IL-1β; Dosage 500 ng/ml, Table 17",352 pg/mL
same,IL-1β,"IL-1β; Dosage 1000 ng/ml, Table 15",177 pg/mL
same,IL-1β,"IL-1β; Dosage 1000 ng/ml, Table 17",327 pg/mL
same,IL-1β,"IL-1β; Dosage 5000 ng/ml, Table 15",187 pg/mL
same,IL-1β,"IL-1β; Dosage 5000 ng/ml, Table 17",390 pg/mL
same,IL-1β,"IL-1β; Dosage 10,000 ng/ml, Table 15",THTC*
same,IL-1β,"IL-1β; Dosage 10,000 ng/ml, Table 17",282 pg/mL
same,% Cytotoxicity,E.G7 (OVA) cells; E:T 12.5:1,10%
same,% Cytotoxicity,E.G7 (OVA) cells; E:T 25:1,15%
same,% Cytotoxicity,E.G7 (OVA) cells; E:T 50:1,28%
same,TNF-α,"TNF-α; Dosage 100 ng/ml, Table 17",302 pg/mL
same,TNF-α,"TNF-α; Dosage 500 ng/ml, Table 17",411 pg/mL
same,TNF-α,"TNF-α; Dosage 1000 ng/ml, Table 15",740 pg/mL
same,TNF-α,"TNF-α; Dosage 1000 ng/ml, Table 17",478 pg/mL
same,TNF-α,"TNF-α; Dosage 5000 ng/ml, Table 15",716 pg/mL
same,TNF-α,"TNF-α; Dosage 5000 ng/ml, Table 17",592 pg/mL
same,TNF-α,"TNF-α; Dosage 10,000 ng/ml, Table 15",775 pg/mL
same,TNF-α,"TNF-α; Dosage 10,000 ng/ml, Table 17",583 pg/mL
same,Percent Survival,"influenza A/HK/68 [3]; mouse, in vivo",50%
same,Titer^−1 IgG1,"influenza A/HK/68 [3]; mouse, in vivo",800
same,Titer^−1 IgG2a,"influenza A/HK/68 [3]; mouse, in vivo",400
same,Titer^−1 IgG2b,"influenza A/HK/68 [3]; mouse, in vivo",800
same,Titer^−1 Total IgG,"influenza A/HK/68 [3]; mouse, in vivo",1600
